Experimental data from patent US11406605B2, “Therapeutic compositions for treating pancreatic cancer” (Golden Biotechnology Corporation, priority 2017, dated 2022).
Values joined by “and” are separate entries in the source; they are usually repeats but may differ in a detail not shown here. Equal values may be shown once.

Key:
[1] = tested on: AsPC-1 pancreatic cancer cells; experiment: Cytotoxicity of test articles (TC50), MTT assay; assay type: cell-based, Human; settings: concentration at which cell viability was reduced to 50%
Description: The human pancreatic carcinoma cell lines, AsPC-1, PANC-1 and CaPan-2 were seeded 3×10^4 cells per well and cultured in a forty-eight (48) well cell culture dish (growth area 0.95 cm^2 per well). Sixteen (16) hours later, cells were treated Compound 1 alone or Compound 1 with a clinical chemotherapy drug, respectively. After 48 or 72 hours of the treatment, methylthiazoletetrazolium (MTT) assay (supplemental protocol-1) was performed to measure the effect of treatment on the viability of cells during proliferation.
B. Cell Preparation • 1. Remove and discard culture medium. • 2. Briefly rinse the cell layer with 5 mL HBSS. Gently shake and remove the HBSS. • 3. Add 5 mL trypsin-EDTA to 15 cm^2 polystyrene dishes. Incubate 5 mins at 37° C. in a humidified incubator with 95% air/5% CO2 atmosphere. • 4. Add 5 mL of complete growth medium (DMEM medium containing 10% FBS) and aspirate cells by gently pipetting. • 5. Count live cells using the trypan blue exclusion assay (supplemental protocol-2) with a hemocytometer. • 6. For in vitro study, cells will be seeded 3×10^4 cells per well and cultured in a forty-eight (48) wells cell culture dish for sixteen (16) hours until treatment. • 7. Incubate cultures at 37° C.
a. Cytotoxicity of test articles (TC50): AsPC-1 was seeded 3×10^4 cells (counted by Cell counter, LUNA™ Automated Cell Counter or hemocytometer) per well and cultured in a 48 wells cell culture dish. Cells were treated with single article from 400 or 800 μM with serial dilution to 0 μM. After 48 or 72 hours of treated, MTT assay was performed to measure the effect of treatment on the viability of AsPC-1 cells during proliferation. The absorbance at 595 nm was measured using a microplate reader (BioTEK, Synergy™ H1). Article sensitivity curves and TC50 values were calculated using GraphPad Prism 4.0 software.

[2] = tested on: advanced pancreatic cancer; settings: patients with advanced pancreatic cancer; cited from earlier work
[3] = tested on: metastatic pancreatic adenocarcinoma; settings: previously untreated metastatic pancreatic adenocarcinoma; cited from earlier work
[4] = tested on: advanced pancreatic cancer; settings: people with advanced pancreatic cancer; cited from earlier work
[5] = tested on: AsPC-1 subcutaneous xenograft; experiment: Antitumor activity on AsPC-1 subcutaneous xenograft model; assay type: in vivo, nude mice
Description: The human pancreatic carcinoma cell line, AsPC-1, was cultured and the cells were injected subcutaneously in a flank of 60 mice. Three days later, the tumors could be felt in the mice. When tumors reached approximately 100-200 mg (mm^3), total of fifty one (51) tumor-bearing mice were randomly selected and sorted into one of six (6) groups. Vehicle (corn oil) treated mice were used as negative controls. Compound 1 combined with gemcitabine or paclitaxel were administered orally once a day and/or I.V. twice a week for four (4) weeks. Tumor measurements were recorded once a week using hand-held calipers and Visualsonic Vevo 2100 image system. Individual mouse weights were taken once a week during dosing. Mice were monitored daily for signs of toxicity and morbidity; any abnormal findings were recorded. The study was terminated four (4) weeks after initiation of drug administration.
D. Human Pancreatic Carcinoma Xenograft Models: • 1. To create the subcutaneous xenograft model, athymic female nude mice (4-6 weeks old) were subcutaneously inoculated with 1×10^7 AsPC-1 cells in 0.1 mL of serum-free DMEM medium containing 20% Matrigel (BD Biosciences, Bedford Mass.). • 2. Tumor-bearing animals were divided into the following 6 groups as table 1. • 3. The mice were monitored for activity and physical condition every day, and the determination of body weight and measurement tumor mass should be done once a week. Tumor image will be photed by digital camera and Visualsonic Vevo 2100 image system. Tumor mass is determined by caliper measurement in two perpendicular diameters of the implant and calculate using the formula […], where “a” stands for the long diameter and “b” is the short diameter.
a. Cell Injections: Mice were injected subcutaneously into the right lateral thorax with 1×10^7 viable human pancreatic carcinoma AsPC-1 Cells. […]
C. Tumor Measurements: The injection site of each animal was monitored one (1) time per week for signs of tumor growth. Throughout the study, the length (a) and width (b) of any tumors developed were measured in millimeters (mm) using vernier calipers, where a is the longer of the two (2) dimensions.
D. Evaluation of drug synergistic effect by tumor growth inhibition (TGI) and tumor inhibitory ratio (TIR): Volume of tumor growth inhibition (TGI) for each group was calculated according to the following formula: Tumor growth inhibition (%)=(1−[T−T0]/[C−C0])×100 • T and T0 are the mean tumor volumes on the end day and day 1 of treatment, respectively, for the experimental groups. […] The tumor inhibitory ratio was calculated by the formula: Tumor inhibitory ratio (%)=[(WControl−WTreated)/WControl]×100% • WTreated and WControl are the average tumor weights of the treated and control mice, respectively. […]

[6] = Body weight and hematological parameters in AsPC-1 xenograft study; assay type: in vivo
Description: A. Clinical Observations: Clinical observations of each study animal were performed and at least once daily (including weekends and holidays) for signs of morbidity, mortality and Test Article toxicity. Morbidity includes signs of illness such as, but not limited to, emaciation, dehydration, lethargy, hunched posture, unkempt appearance, dyspnea and urine or fecal staining. All abnormal findings will be recorded.
B. Animal Weights: Individual animal weights were taken one (1) time per week after/before dosing. Weights were recorded first prior to cell injections and continued for the duration of the study.
D. Hematological parameters: Cardiac blood was collected in EDTA for analyzing hematological parameters such as white blood cell count (WBC), red blood cell count (RBC), hemoglobin concentration (HB), hematocrit, mean corpuscular hemoglobin and concentration, platelet distribution width, platelet count, neutrophils, lymphocytes, monocytes, eosinophils. This was determined using hematology counter (Abbott Cell-Dyn 3700, IL).

[7] = tested on: metastatic pancreatic cancer; experiment: Phase I study of Compound 1 with nab-paclitaxel and gemcitabine, preliminary results; assay type: in vivo, human; settings: 600 mg daily dosage of Compound 1 in combination with nab-paclitaxel and gemcitabine; after 3rd cycle (8 weeks treatment); individual patients
Source text: This is a single-arm, open-label, multi-center Phase I study of Compound 1 in combination with nab-paclitaxel and gemcitabine in first line treatment naïve subjects with Stage IV metastatic pancreatic carcinoma.
The first part of the study will follow a 3+3 dose escalation design to determine the MTD or MFD (based on PK and capsules strength) of antroquinonol in combination with standard dose regimen of nab-paclitaxel and gemcitabine. Two dose levels of antroquinonol given TID are planned based on dose escalation data and capsules strengths. The final number of subjects will be based on the number of dose levels investigated and DLTs occurrence. Up to 12 subjects may be treated in this part of the study. A Safety Monitoring Committee (SMC) will be set up for this study to review DLTs and overall safety data and judge the relevance of events to the dose escalation scheme. […]
Treatments Administered: Compound 1 will be administered in 200- to 300-mg doses (planned dose levels), TID, given in 100 mg capsules (resulting a daily dosage of 600 mg to 900 mg). Additional dose levels may be investigated as determined by the study SMC. […]
Efficacy Assessments: The RECIST 1.1 criteria will be used to assess subject response to treatment by determining ORR, DoR, DCR, PFS, PFS 3 months, and PFS 6 months. […] The OS, OS 6 months, and OS 12 months will also be evaluated.

[8] = tested on: orthotopic PANC-1 human pancreatic cancer xenograft; settings: 30, 60, and 90 mg/kg, cited from earlier work
[9] = 50, 100, 200, 300, 450, and 600 mg-dose levels, given daily for 4 weeks; cited from earlier work
[10] = Homo sapiens, ASPC1, AsPC-1 cells, 48 hrs
[11] = Homo sapiens, ASPC1, AsPC-1 cells, 72 hrs
[12] = AsPC-1 xenograft, 28 days treatment
[13] = cardiac blood, AsPC-1 xenograft study, mean ± SEM, n = 3

CCc1c2c(nc3ccc(OC(=O)N4CCC(N5CCCCC5)CC4)cc13)-c1cc3c(c(=O)n1C2)COC(=O)[C@]3(O)CC [Irinotecan]
CC50 [1, 10]: 221 µM
CC50 [1, 11]: 68.3 µM

CC(=O)O[C@H]1C(=O)[C@@]2(C)[C@H]([C@H](OC(=O)c3ccccc3)[C@]3(O)C[C@H](OC(=O)[C@H](O)[C@@H](NC(=O)c4ccccc4)c4ccccc4)C(C)=C1C3(C)C)[C@]1(OC(C)=O)CO[C@@H]1C[C@@H]2O [Paclitaxel]
CC50 [1, 10]: 7.05 µM
CC50 [1, 11]: 3.72 µM

O=c1[nH]cc(F)c(=O)[nH]1 [Compound 5-FU, 5-Fluorouracil]
CC50 [1, 10]: > 800 µM
CC50 [1, 11]: > 800 µM

Nc1ccn([C@@H]2O[C@H](CO)[C@@H](O)C2(F)F)c(=O)n1 [Gemcitabine]
CC50 [1, 10]: > 800 µM
CC50 [1, 11]: > 800 µM
Median progression-free survival (PFS) [2]: 3.3 months
median overall survival (OS) [2]: 6.8 months
Median PFS [3]: 3.7 months
median OS [3]: 6.7 months
improvement in median survival duration [4]: 5 week

C#Cc1cccc(Nc2ncnc3cc(OCCOC)c(OCCOC)cc23)c1 [Erlotinib]
CC50 [1, 10]: > 800 µM
CC50 [1, 11]: > 800 µM

O=C1[O][Pt]2([NH][C@@H]3CCCC[C@H]3[NH]2)[O]C1=O [Oxaliplatin]
CC50 ([1]; AsPC-1 cells, 48 hrs): 655 µM
CC50 ([1]; AsPC-1 cells, 72 hrs): 57.9 µM

COC1=C(OC)C(O)C(C/C=C(\C)CC/C=C(\C)CCC=C(C)C)C(C)C1=O (centres unmarked) [Compound 1, 4-hydroxy-2,3-dimethoxy-6-methyl-5-(3,7,11-trimethyldodeca-2,6,10-trienyl)cyclohex-2-enone]
CC50 [1, 10]: 58.1 µM
CC50 [1, 11]: 24 µM
Response, TCR (tumor volume of treatment-to-control ratios) [5, 12]: 0.55
TGI (volume of tumor growth inhibition) [5, 12]: 51%
TIR (tumor weight inhibitory ratio) [5, 12]: 45%
Tumor weight of excised tumors at the time of sacrifice ([5]; after 28 days of treatments, A 120 mg/kg oral daily, G/P IV twice weekly, mean ± SEM): 0.21 ± 0.07 g
number of blood cells ([6]; AsPC-1 xenograft): did not affect number of blood cells except for blood glucose
HCT [6, 13]: 50.3 ± 1.8%
HGB [6, 13]: 15.6 ± 1.1 g/dL
MCH [6, 13]: 15.3 ± 0.3 pg
MCV [6, 13]: 53.6 ± 2.3 fL
RBC [6, 13]: 9.93 ± 1.34 10^12/L
WBC [6, 13]: 7.34 ± 0.71 10^9/L
patient tumor size after treatment [7]: 84 mm and 39 mm
patient tumor size reduced [7]: 7.6% and 22%
tolerability, body weight loss ([8]; tumor bearing mice): tolerated well
anti-tumor activity (mean tumor volumes and tumor weights vs vehicle control) ([8]; measured 10 days after drug treatment): effective anti-tumor activity
safety and tolerability [9]: generally safe and well tolerated
